Reference: ChEMBL document CHEMBL1147271, “New cytotoxic metabolites from a marine sponge Homaxinella sp” (2004)
Converted amounts (≈) assume the structure as drawn.

Columns and labels:
Assay type in all cases: functional
Details in all cases: read-out: ED50 (the source's name)
A549 = assay: Cytotoxicity against human A549 cells
XF498 = assay: Cytotoxicity against human XF498 cells
SK-MEL-2 = assay: Cytotoxicity against human SK-MEL-2 cells
HCT-15 = assay: Cytotoxicity against human HCT15 cells
SK-OV-3 = assay: Cytotoxicity against human SKOV3 cells

In the case of `CC/C=C/C/C=C\C/C=C\C/C=C\C[C@@]1(OC)C=CC(=O)O1` [HOMAXINOLIDE C], the EC50 (A549) is reported as > 30 mg/L, the EC50 (XF498) is reported as > 30 mg/L and the EC50 (SK-MEL-2) is reported as 14.9 mg/L (≈ 49.3 µM). The EC50 (HCT-15) was 34.8 mg/L (≈ 115 µM) and the EC50 (SK-OV-3) was > 30 mg/L.

`CCCCC/C=C\C/C=C\C/C=C\C[C@@]1(O)C=CC(=O)C1` was tested, and the EC50 (A549) was 5.4 mg/L (≈ 18.7 µM), the EC50 (XF498) was 4.9 mg/L (≈ 17 µM) and the EC50 (SK-MEL-2) was 2.6 mg/L (≈ 9.01 µM). For the same compound, the EC50 (HCT-15) was 2.9 mg/L (≈ 10.1 µM) and the EC50 (SK-OV-3) was 4.4 mg/L (≈ 15.3 µM).

`CC/C=C\C/C=C\C/C=C\C/C=C\C[C@]1(OC)C=CC(=O)O1` [HOMAXINOLIDE B] was tested, and the EC50 (A549) was 32.1 mg/L (≈ 106 µM), the EC50 (XF498) was > 30 mg/L and the EC50 (SK-MEL-2) was 4.5 mg/L (≈ 14.9 µM). The EC50 (HCT-15) was 17.5 mg/L (≈ 57.9 µM) and the EC50 (SK-OV-3) was > 30 mg/L.

`CCCCC/C=C\C/C=C\C/C=C\C[C@@]1(OC)C=CC(=O)O1` [HOMAXINOLIDE A] was tested, and the EC50 (A549) was 10.1 mg/L (≈ 33.2 µM), the EC50 (XF498) was 9.9 mg/L (≈ 32.5 µM) and the EC50 (SK-MEL-2) was 2.7 mg/L (≈ 8.87 µM). It also gave an EC50 (HCT-15) of 8.9 mg/L (≈ 29.2 µM) and an EC50 (SK-OV-3) of 16.1 mg/L (≈ 52.9 µM).

In the case of `CCCCC/C=C\C/C=C\C/C=C\CO`, the EC50 (A549) is reported as > 30 mg/L, the EC50 (XF498) is reported as 30 mg/L (≈ 144 µM) and the EC50 (SK-MEL-2) is reported as 74.1 mg/L (≈ 356 µM). It also gave an EC50 (HCT-15) of 25.5 mg/L (≈ 122 µM) and an EC50 (SK-OV-3) of 19.8 mg/L (≈ 95 µM).

For `COc1cccc2c1C(=O)c1c(O)c3c(c(O)c1C2=O)C[C@@](O)(C(=O)CO)C[C@@H]3O[C@H]1C[C@H](N)[C@H](O)[C@H](C)O1` [DOXORUBICIN], the EC50 (A549) was 0.07 mg/L (≈ 0.129 µM), the EC50 (XF498) was 0.12 mg/L (≈ 0.221 µM) and the EC50 (SK-MEL-2) was 0.12 mg/L (≈ 0.221 µM). For the same compound, the EC50 (HCT-15) was 0.17 mg/L (≈ 0.313 µM) and the EC50 (SK-OV-3) was 0.24 mg/L (≈ 0.442 µM).
